Experimental data published in PubChem BioAssay (NCI).
Where “and” joins values, the source holds several entries; their conditions need not be identical. Identical values can stand only once.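 Dose response: 5 concentrations. Exposure: 48 h. Format: 96-well plates. Endpoint: linear interpolation; highest concentration if not reached. The concentration for 50% growth inhibition is given as GI50. TGI: concentration producing complete growth inhibition.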

What was measured:
Assay in all cases: NCI tumour cell line growth inhibition, 48 h
DLD-1 colon = tested on: DLD-1 colon
DMS 273 small cell lung = tested on: DMS 273 small cell lung
LXFL 529 NSCLC = tested on: LXFL 529 NSCLC
RXF-631 renal = tested on: RXF-631 renal
XF 498 CNS = tested on: XF 498 CNS
MDA-N = tested on: MDA-N
HOP-18 NSCLC = tested on: HOP-18 NSCLC
P388 leukemia = tested on: P388 leukemia
P388/ADR leukemia = tested on: P388/ADR leukemia
SN12K1 renal = tested on: SN12K1 renal

Structure (SMILES) | TGI (DLD-1 colon) | TGI (DMS 273 small cell lung) | TGI (LXFL 529 NSCLC) | TGI (XF 498 CNS) | TGI (MDA-N) | TGI (HOP-18 NSCLC) | further results
C1=CC(=P(c2ccccc2)(c2ccccc2)c2ccccc2)C=C1 | 62.5 µM | 26.4 µM | 13 µM | 12.6 µM | – | – | TGI (RXF-631 renal): 46.7 µM
CC(C)Cc1cnc(CC(C)C)c(=O)[nH]1 | – | – | – | – | > 100 µM | – | –
N#Cc1nc(CCc2nc(C#N)c(N)o2)oc1N | – | – | – | – | > 10 µM | – | –
CN1CCCC2[C@@H]3CCC4c5nonc5CC[C@]4(C)C3CC[C@@]21C (stereo partly drawn) | > 100 µM | > 100 µM | > 100 µM | 81.8 µM | – | > 100 µM | –
N=C1CCCC1C(=S)SCCC(N)=O (stereo not drawn) | – | – | – | – | > 100 µM | – | –
COc1ccc(-c2nc3ccccc3s2)cc1OC | – | – | – | – | > 100 µM | – | –
CC(=O)N1[C@H](C(=O)O)CS[C@H]1c1ccc(F)cc1 | – | – | > 100 µM | – | – | > 100 µM | TGI (RXF-631 renal): > 100 µM
CC(C)(C)C#COC(=O)c1ccccc1 | > 100 µM | – | > 100 µM | – | – | – | –
O=c1c(Cc2ccccc2)c(O)cc2n1CCC2 | > 100 µM | – | > 100 µM | > 100 µM | – | > 100 µM | TGI (RXF-631 renal): > 100 µM
N/N=C(/Cc1ccccc1)NNO | > 100 µM | > 100 µM | > 100 µM | – | – | > 100 µM | TGI (RXF-631 renal): > 100 µM
[N-]=[N+]=CC(=O)CCC(N)C(=O)O (stereo not drawn) | > 170 µM | > 250 µM | – | 230 µM | > 250 µM | > 250 µM | GI50 (MDA-N): 2.26 µM; TGI (P388 leukemia): 21.9 µM; TGI (P388/ADR leukemia): 30.4 µM; TGI (SN12K1 renal): 141 µM
COc1cc(C)c2c(c1)CN1CN2Cc2cc(OC)cc(C)c21 | > 100 µM | > 100 µM | > 100 µM | – | – | – | –
O=C(Nc1ccc(Cl)cc1C(F)(F)F)C(=O)Nn1c(=S)[nH]c2ccccc2c1=O | – | – | – | – | > 100 µM | – | –
O=C(c1ccccc1)C1N=NN(Cc2ccccc2[N+](=O)[O-])C1C(=O)c1ccccc1 (stereo not drawn) | > 100 µM | > 100 µM | > 100 µM | – | – | > 100 µM | –
Cc1ccc(C2=CC(=O)c3ccccc3C2=O)n1-c1ccccc1 | > 100 µM | > 100 µM | > 100 µM | > 100 µM | – | > 100 µM | –
NCCO/C=C/C(N)C(=O)O (stereo not drawn) | – | – | – | – | > 100 µM | – | –
CC(=O)Nc1ccc(C2CC(c3ccc([N+](=O)[O-])cc3)=Nc3ccccc3S2)cc1 (stereo not drawn) | 32.4 µM | 71.4 µM | 41.7 µM | 27 µM | – | 78.2 µM | TGI (RXF-631 renal): 70 µM
Cc1cc2c(c(C(=O)O)c1C)-c1cccc(Cl)c1C2=O | > 100 µM | > 100 µM | > 100 µM | > 100 µM | – | – | –
Cn1c(=O)oc2cc(C3CCC(=O)N3Cc3csc(-c4ccccc4)n3)ccc21 (stereo not drawn) | > 100 µM | > 100 µM | > 100 µM | > 100 µM | – | > 100 µM | –
Cc1cc(Cl)ccc1NC(=O)CCCC(=O)C1C/C(=N/O)CC/C1=N\O (stereo not drawn) | > 100 µM | > 100 µM | > 100 µM | > 100 µM | – | > 100 µM | TGI (RXF-631 renal): > 100 µM
CCOc1c(Br)cc(Br)cc1C=C(C#N)C#N | – | – | – | – | > 10 µM | – | –
Cc1cc(=O)[nH]c(NNC(C#N)c2cccc([N+](=O)[O-])c2)n1 (stereo not drawn) | > 100 µM | > 100 µM | > 100 µM | – | – | > 100 µM | –

Structure (SMILES) | TGI (DLD-1 colon) | TGI (DMS 273 small cell lung) | TGI (LXFL 529 NSCLC) | TGI (XF 498 CNS) | TGI (MDA-N) | TGI (HOP-18 NSCLC) | further results
CCOc1ccc(NC(=O)/C(CC(=O)c2c[n+](=O)c3ccccc3n2[O-])=N\OCCCc2ccccc2)cc1 | > 100 µM | > 100 µM | > 100 µM | – | – | – | TGI (RXF-631 renal): > 100 µM
c1ccc2c(c1)[nH]c1c2nc2ccccn21 | > 100 µM | > 100 µM | > 100 µM | > 100 µM | – | > 100 µM | TGI (RXF-631 renal): > 100 µM
c1cnc2c(c1)-n1cccc1C1(CCCCC1)NN2 | – | > 100 µM | – | > 100 µM | – | > 100 µM | –
O=C1c2ccccc2-c2nc3ccncc3n21 | – | – | – | – | > 100 µM | – | –
COc1cccc2c1C(=O)c1c(O)c3c(c(O)c1C2=O)C[C@@](O)(C(C)=O)CC3OC1CC(OC2CC(N)C(O)C(C)O2)C(O)C(C)O1 (stereo partly drawn) | – | – | – | – | > 100 µM | – | –
Cc1c(C)c([N+](=O)[O-])c2c(c1N)C(=O)c1ccccc1C2=O | > 100 µM | > 100 µM | > 100 µM | > 100 µM | – | > 100 µM | –
O=c1c(-c2ccc3c(c2)OCO3)coc2c3c(ccc12)OCO3 | – | – | – | – | > 100 µM | – | –
O=C1CC23CCCCCCCCCCC2(C1)CC(=O)C3 (stereo not drawn) | > 100 µM | 52.5 µM | > 100 µM | 49.2 µM | – | 92.7 µM | –
Cc1ccccc1NC(=O)CSc1nnc(-c2ccc(N=Cc3ccc(Cl)cc3)cc2)o1 | – | > 100 µM | > 100 µM | > 100 µM | – | > 100 µM | –
COC1(OC)C2(Cl)C3=CCCC=C3C1(Cl)C(Cl)=C2Cl | > 100 µM | 39.8 µM | > 100 µM | 50.2 µM | – | – | TGI (RXF-631 renal): 30.3 µM
Cc1cccc(C)c1NC(=O)C(=O)Cc1nc2ccccc2s1 | > 100 µM | > 100 µM | > 100 µM | > 100 µM | – | – | –
Clc1ccccc1C(Nc1cnccn1)Nc1cnccn1 | – | – | – | – | > 100 µM | – | –
CC1CCC2C(C)C(=O)OC2C2(C)C(=O)C=CC12 (stereo not drawn) | – | – | – | – | > 10 µM | – | –
COC(=O)C1CC(c2ccc(OC)c(OC)c2)OC1=O (mixture of isomers) | > 100 µM | > 100 µM | > 100 µM | > 100 µM | – | – | TGI (RXF-631 renal): > 100 µM
OCC(O)C(O)C(O)C(/C=N\Nc1ncnc2c(Br)cc(Br)cc12)=N/Nc1ncnc2c(Br)cc(Br)cc12 (stereo not drawn) | – | – | – | – | 23.2 µM and > 100 µM | – | –
C[C@@H]1C[C@@H]([C@H](O)CC2CC(=O)NC(=O)C2)C(=O)[C@@H](C)C1 | 1.98 µM | – | 0.623 µM | 0.504 µM | – | – | TGI (RXF-631 renal): 0.608 µM
Cc1cccc(C2NC(=O)c3ccccc3N2)c1 (stereo not drawn) | – | – | – | – | 3.45 µM | – | –
COC(=O)C1C=CCC2CCCCC21N1CCCC1 (stereo not drawn) | > 100 µM | > 100 µM | > 100 µM | – | – | > 100 µM | TGI (RXF-631 renal): > 100 µM
COc1c2ccoc2nc2c(OC)c(OCC(O)C(C)(C)O)ccc12 (stereo not drawn) | – | – | – | – | > 100 µM | – | –
Oc1ccc(Cl)cc1C=Nc1cnc2ccccc2c1 | – | – | – | – | > 100 µM | – | –
O=C1NC(O)n2c(=O)[nH]c(=O)n21 (stereo not drawn) | > 100 µM | > 100 µM | > 100 µM | > 100 µM | – | > 100 µM | TGI (RXF-631 renal): > 100 µM
N#C/C(=C\c1ccc2[nH]ccc2c1)C(=O)NCCCCNC(=O)/C(C#N)=C/c1ccc2[nH]ccc2c1 | > 100 µM | > 100 µM | > 100 µM | > 100 µM | > 10 µM | – | –
